Patent EP4122467A1, “THX-B FOR TREATING AND PREVENTING CANCER AND METASTASIS” (Fundación del Sector Público Estatal Centro Nacional de …, priority 2021, dated 2023)
“Also recorded” adds a separate entry of the source.

Assays:
proNGF/p75^NTR axis [1] = test: Cystometry in diabetic voiding dysfunction model; type: in vivo, C57BL/6 female mice; details: compared with Dm
Method: (§1) Animal housing and treatments All experiments received the ethical approval from the Lady Davis Institute Ethics Board (No. 7859), Montreal, Canada. Housing and handling conformed with the Canadian Council for Animal Care (CCAC). One hundred and forty four 9-week-old C57BL/6 female mice were kept on a 12 h light/dark cycle with free access to food (standard Purina chow, Teklad Global, Wl, USA) and water. Diabetes was induced by i.p. injection of streptozotocin (60 mg/kg in citrate buffer, 10 mmol/l, pH 4.5 on 5 consecutive days) after 4-5 h fasting. Fasting serum glucose (FSG) was checked after 5-7 days using a glucometer (Contour next EZ, Bayer, ON, Canada) from the tail. FSG above 14 mmol/l was considered diabetic. Mice were divided into four groups without pre-considering their weight changes or glucose levels (for diabetic groups): control (42 mice); untreated diabetic (hereafter referred to as Dm; 42 mice); anti-proNGF mAb-treated diabetic mice (30 mice); and small molecule p75^NTR antagonist (THX-B)-treated diabetic mice (30 mice). […] This inhibitor antagonises ligand-dependent p75^NTR functions and, different from other anti-NGF mAbs, it is free of the off-target side effects resulting from inhibiting TrkA. We have observed that the molecule is detectable in systemic circulation for 2 weeks. The THX-B small molecule ((1,3-diisopropyl-1-[2-(1,3-dimethyl-2,6-dioxo-1,2,3,6-tetrahydro-purin-7-yl)-acetyl]-urea); molecular mass […]) is a synthetic chemical with an estimated systemic circulation half-life in vivo of 6-8 h.
(§2) Without blinding, i.p. injections of the drug molecules or the vehicle (PBS) were given weekly for four weeks, starting after 2 weeks of diabetes confirmation. A single starting proNGF mAb i.p. injection of 100 µg/mouse in 150 µl PBS was followed by 60 µg/mouse in 100µl PBS for the following three injections. THX-B was injected i.p. at a weekly dose of 50 µg/mouse in 125 µl PBS. Experimental time points (to carry out cystometry, contractility, protein extraction and histology) were baseline (two weeks after diabetes diagnosis included control and Dm groups only), week 2 after treatment (following 2 injection cycles) and week 4 after treatment (following 4 injection cycles). Body weight was measured weekly and FSG fortnightly for all groups. Six mice from each group were kept for another 2 weeks after the end of the study duration to observe the washout/prolonged effect of the molecules.

TNF-a = test: Molecular changes in diabetic voiding dysfunction model: TNF-a; type: in vivo, C57BL/6 female mice; details: compared with Dm
Method: (§3) Animal housing and treatments All experiments received the ethical approval from the Lady Davis Institute Ethics Board (No. 7859), Montreal, Canada. Housing and handling conformed with the Canadian Council for Animal Care (CCAC). One hundred and forty four 9-week-old C57BL/6 female mice were kept on a 12 h light/dark cycle with free access to food (standard Purina chow, Teklad Global, Wl, USA) and water. Diabetes was induced by i.p. injection of streptozotocin (60 mg/kg in citrate buffer, 10 mmol/l, pH 4.5 on 5 consecutive days) after 4-5 h fasting. Fasting serum glucose (FSG) was checked after 5-7 days using a glucometer (Contour next EZ, Bayer, ON, Canada) from the tail. FSG above 14 mmol/l was considered diabetic. Mice were divided into four groups without pre-considering their weight changes or glucose levels (for diabetic groups): control (42 mice); untreated diabetic (hereafter referred to as Dm; 42 mice); anti-proNGF mAb-treated diabetic mice (30 mice); and small molecule p75^NTR antagonist (THX-B)-treated diabetic mice (30 mice). […]
(§4) Without blinding, i.p. injections of the drug molecules or the vehicle (PBS) were given weekly for four weeks, starting after 2 weeks of diabetes confirmation. […] Body weight was measured weekly and FSG fortnightly for all groups. […]

[2] = Persistence in systemic circulation in vivo; details: read-out: estimated systemic circulation half-life in vivo
Description: In both the proNGF mAb and the THX-B treatments, the prolonged anatomical physiological effects on the bladder are likely to be due to a prolonged therapeutic effect rather than to the drugs remaining in circulation at therapeutic levels after a 3 week period, given that we have observed that anti-proNGF mAb is detectable in systemic circulation only for 2 weeks in previous studies.
as §3, with “diabetic.” for “diabetic. Mice were divided into four groups without pre-considering their weight changes or glucose levels (for diabetic groups): control (42 mice); untreated diabetic (hereafter referred to as Dm; 42 mice); anti-proNGF mAb-treated diabetic mice (30 mice); and small molecule p75^NTR antagonist (THX-B)-treated diabetic mice (30 mice).”

B16F1-R2 cells = test: Lymph node lymphangiogenesis, LYVE-1 staining of inguinal LNs of animals with flank tumors (Figure 5); type: in vivo; details: 2.5 mg/Kg THX-B intra-peritoneally twice a week from day 7; sacrificed at 21 days
Method: (§5) • Figure 1. NGFR inhibition by THX-B reduces melanoma spontaneous metastasis. A-B) 200.000 lymph node metastatic mouse melanoma cells were subcutaneously in c57/BL6 mice. Animals were treated intra-peritoneally with THX-B (4 mg/Kg twice a week), starting on day 7 post-injection of tumor cells. Tumor volume (A) was measured twice a week using a caliper. LN and lung metastatic burden (B) were measured using the IVIS image system and represented as fold over vehicle treated mice. Error bars represent s.e.m. of 2 experiments (n = 8 mice, vehicle group and n = 10, THX-B group). C-D) Similarly, tumor growth (C) was measured in mice subcutaneously injected with lung metastatic mouse melanoma cells (200.000) and treated with vehicle or THX-B in the same conditions as A) (n=4-5mice per condition). D) Percentage of lung lobules with melanoma metastasis in animals with flank tumors originated by injecting B16F10 cells. p values were calculated by two-tailed Student's t test. • Figure 2. […] A) Tumor growth was measured with a caliper twice a week. B) Quantification of the percentage of lung lobules with melanoma metastasis was analyzed measuring Luc expression of tumor loci with the IVIS system. p values were calculated by two-tailed Student's t test. • Figure 3. […] A) Tumor volume was measured using a caliper. […] Distal metastases were analyzed measuring luciferase expression in the lungs using IVIS system. […]

proNGF/p75^NTR axis [3] = test: Bladder contractility in diabetic voiding dysfunction model; type: in vivo, C57BL/6 female mice; details: compared with Dm, week as printed in the cell
Method: as §1
Without blinding, i.p. injections of the drug molecules or the vehicle (PBS) were given weekly for four weeks, starting after 2 weeks of diabetes confirmation. A single starting proNGF mAb i.p. injection of 100 µg/mouse in 150 µl PBS was followed by 60 µg/mouse in 100µl PBS for the following three injections. THX-B was injected i.p. at a weekly dose of 50 µg/mouse in 125 µl PBS. […] Body weight was measured weekly and FSG fortnightly for all groups. […]

proNGF/p75^NTR axis [4] = test: Voiding spot assay (VSA) in diabetic mice; type: in vivo, C57BL/6 female mice
Method: Voiding spot assay: For the voiding spot assay (VSA), mice were placed individually with access to food without water for 2 h. The cage was fitted with a chromatography paper, grade 3 mm CHR (Whatman, GE Healthcare, UK) covered by a fine metallic mesh (2-3 mm pore size). The urine spot pattern was assessed by imaging the chromatography paper with ultraviolet light using SynGene Bioimaging system (USA) connected to GeneSnap software (Version 7.02, USA) and analysed by ImageJ software (Version: 2.0.0-rc-66/1.52n, NIH, USA) using a calibration curve and Void Whizzard free software plugin for FIJI (distribution of ImageJ, Version: 2.0.0-rc-66/1.52n, NIH, USA). Mice were acquainted to the procedure once to get accustomed, then the experiment was done once to obtain the voiding data.
as §1, §2

mouse melanoma cells = test: Spontaneous metastasis model, mouse melanoma cells injected subcutaneously (Figure 1); type: in vivo, c57/BL6 mice
Method: • Figure 1. NGFR inhibition by THX-B reduces melanoma spontaneous metastasis. A-B) 200.000 lymph node metastatic mouse melanoma cells were subcutaneously in c57/BL6 mice. Animals were treated intra-peritoneally with THX-B (4 mg/Kg twice a week), starting on day 7 post-injection of tumor cells. Tumor volume (A) was measured twice a week using a caliper. LN and lung metastatic burden (B) were measured using the IVIS image system and represented as fold over vehicle treated mice. Error bars represent s.e.m. of 2 experiments (n = 8 mice, vehicle group and n = 10, THX-B group). C-D) Similarly, tumor growth (C) was measured in mice subcutaneously injected with lung metastatic mouse melanoma cells (200.000) and treated with vehicle or THX-B in the same conditions as A) (n=4-5mice per condition). D) Percentage of lung lobules with melanoma metastasis in animals with flank tumors originated by injecting B16F10 cells. p values were calculated by two-tailed Student's t test. • Figure 2. NGFR inhibition by THX-B reduces melanoma spontaneous metastasis in immunodeficient models. Lung metastatic human melanoma cells (500.000) were injected subcutaneously into the flank of nude mice. […] A) Tumor growth was measured with a caliper twice a week. B) Quantification of the percentage of lung lobules with melanoma metastasis was analyzed measuring Luc expression of tumor loci with the IVIS system. p values were calculated by two-tailed Student's t test. • Figure 3. […] A) Tumor volume was measured using a caliper. […] Distal metastases were analyzed measuring luciferase expression in the lungs using IVIS system. Error bars represent s.e.m of 3 experiment (n = 12 mice, vehicle group, n = 12, antiPD-L1 group; n=8 antiPDL1 and THX-B group). p values were calculated by two-tailed Student's t test. • Figure 4. […] Quantification of LYVE+ area was performed with ImageJ software and was normalized to total LN area in each section. Error bars represent s.e.m of 1 experiment (n = 6 LNs, 3 whole sections analyzed per nodule). p values were calculated by two-tailed Student's t test. • Figure 6. […]

proNGF/NGF = test: Molecular changes in diabetic voiding dysfunction model: proNGF/NGF; type: in vivo, C57BL/6 female mice; details: compared with Dm
Method: as §3, §4

proNGF/p75^NTR axis [5] = test: Fasting serum glucose and bladder weight/morphology after drug washout (Figure 7); type: in vivo, C57BL/6 female mice; details: after the 3 week washout period; compared with Dm
Method: as §5

proNGF/p75^NTR axis [6] = test: Bladder weight and morphology in diabetic voiding dysfunction model; type: in vivo, C57BL/6 female mice
Method: as §1, §2

[7] = system: Lung metastatic human melanoma cells; test: Spontaneous metastasis model in immunodeficient mice, human melanoma cells injected subcutaneously (Figure 2); type: in vivo, nude mice; details: immunodeficient models; THX-B 4 mg/Kg intraperitoneal twice a week from day 7; vs vehicle
Method: as §5

[8] = Drug levels and tissue distribution after intraperitoneal and oral administration; type: in vivo, mice
Method: In lymph nodes compound was detected at 8 hours with a concentration of 9 ng/ml.

[9] = compared with Dm, week as printed in the cell
[10] = THX-B 4 mg/Kg intra-peritoneally twice a week from day 7, vs vehicle

With CC(C)NC(=O)N(C(=O)Cn1cnc2c1c(=O)n(C)c(=O)n2C)C(C)C [THX-B, 1,3-diisopropyl-1-[2-(1,3-dimethyl-2,6-dioxo-1,2,3,6-tetrahydro-purin-7-yl)-acetyl]-urea] the “Cystometry: Spontaneous activity” value (proNGF/p75^NTR axis [1]) was “⇔”, the “Cystometry: Bladder capacity” value (proNGF/p75^NTR axis [1]; week as printed in the cell) was “↓ (week 4)” and the “Cystometry: Bladder compliance” value (proNGF/p75^NTR axis [1]; week as printed in the cell) was “⇔”. For the same molecule, the “Cystometry: ICI” value (proNGF/p75^NTR axis [1]; inter-contraction interval, week as printed in the cell) was “↓ (week 4)”, the “Molecular changes: TNF-a” value (TNF-a) was “↓↓” and the half-life [2] was 6 to 8 h. For the same molecule, the “lymph node lymphangiogenesis (Lyve-1+ staining in inguinal lymph nodes)” value (B16F1-R2 cells) was “reduces; also recorded: decreased”, the “Contractility: EFS” value (proNGF/p75^NTR axis [3]; Electric field stimulation) was “↑ (week 2,4)” and the “Contractility: Carbachol” value (proNGF/p75^NTR axis [3]) was “↑ (week 2,4)”. For the same molecule, the “Contractility: KCI” value (proNGF/p75^NTR axis [3]) was “↑ (week 2,4)”, the “lower total voided volume compared with Dm” value (proNGF/p75^NTR axis [4]; after 2 weeks of treatment) was 50% and the total voided volume (proNGF/p75^NTR axis [4]; after 2 weeks of treatment, 2 h VSA, Dm 802.5±123µl) was 372 ± 73 µL. The “VSA: Volume per spot” value (proNGF/p75^NTR axis [4]; compared with Dm) was “⇔”, the “effects on voiding frequency, total voided volume and mean volume per micturition” value (proNGF/p75^NTR axis [4]; compared with Dm, except total voided volume for THX-B at 2 weeks) was “minimal effects” and the “VSA: Number of spots” value (proNGF/p75^NTR axis [4]; [9]) was “↓ (week 2)”. For the same molecule, the “VSA: Total volume” value (proNGF/p75^NTR axis [4]; [9]) was “↓ (week 2)”, the melanoma spontaneous metastasis (mouse melanoma cells; Figure 1 title, THX-B 4 mg/Kg intra-peritoneally twice a week) was “reduces” and the “distal (lung) spontaneous metastasis” value (mouse melanoma cells; [10]) was “impaired”. For the same molecule, the “local (lymph node) spontaneous metastasis” value (mouse melanoma cells; [10]) was “impaired”, the “Molecular changes: proNGF/NGF” value (proNGF/NGF) was “↓” and the Bladder weight (proNGF/p75^NTR axis [5]) was “persistent absence of bladder hypertrophy; also recorded: maintained a significant difference”. The “Morphology: Collagen content” value (proNGF/p75^NTR axis [6]; compared with Dm) was “↓”, the “Morphology: Detrusor” value (proNGF/p75^NTR axis [6]; compared with Dm) was “↓” and the “Morphology: Mucosa” value (proNGF/p75^NTR axis [6]; compared with Dm) was “↓”. For the same molecule, the “Morphology: Overall thickness” value (proNGF/p75^NTR axis [6]; compared with Dm) was “↓”, the Bladder weight (proNGF/p75^NTR axis [6]; compared with Dm, week of treatment as printed in the cell) was “↓ (week 2,4)” and the “morphology of the bladder” value (proNGF/p75^NTR axis [6]; following THX-B treatment, in spite of continuous hyperglycemia) was “improved”. For the same molecule, the lung spontaneous metastasis [7] was “reduce”, the “organ distribution: lymph nodes” value ([8]; females, 20 hours after injection 4mg/Kg) was “can be detected” and the detection levels ([8]; intraperitoneal injection 4mg/Kg, males and female mice, said to suggest a short half-life) was “dropped 1 hour after injection”. The concentration at 8 h ([8]; mouse, lymph nodes, oral dose 50mg/Kg, 8 hours) was 9 ng/mL, the concentration at 24 h ([8]; mouse, tissues except lymph nodes, oral dose 50mg/Kg, 24h, read-out: tissue distribution: concentration in all the tissues except the lymph nodes) was 12 to 20 ng/mL and the half-life ([8]; oral gavage 10mg/Kg, compared with intraperitoneal injection) was “similar”. For the same molecule, the half-life ([8]; oral gavage 50mg/Kg) was “sustained over time”.
